Assay results from ChEMBL document CHEMBL1811782, “The 2010 Philip S. Portoghese Medicinal Chemistry Lectureship: addressing the "core issue" in the design of estrogen receptor ligands” (J Med Chem, 2011).

Experiments:
[1] = biological target: T1, Estrogen receptor (Homo sapiens) (UniProt P03372); assay: Ratio of estradiol IC50 to compound IC50 for ERalpha receptor by relative binding affinity assay
T1 sequence (whole entry): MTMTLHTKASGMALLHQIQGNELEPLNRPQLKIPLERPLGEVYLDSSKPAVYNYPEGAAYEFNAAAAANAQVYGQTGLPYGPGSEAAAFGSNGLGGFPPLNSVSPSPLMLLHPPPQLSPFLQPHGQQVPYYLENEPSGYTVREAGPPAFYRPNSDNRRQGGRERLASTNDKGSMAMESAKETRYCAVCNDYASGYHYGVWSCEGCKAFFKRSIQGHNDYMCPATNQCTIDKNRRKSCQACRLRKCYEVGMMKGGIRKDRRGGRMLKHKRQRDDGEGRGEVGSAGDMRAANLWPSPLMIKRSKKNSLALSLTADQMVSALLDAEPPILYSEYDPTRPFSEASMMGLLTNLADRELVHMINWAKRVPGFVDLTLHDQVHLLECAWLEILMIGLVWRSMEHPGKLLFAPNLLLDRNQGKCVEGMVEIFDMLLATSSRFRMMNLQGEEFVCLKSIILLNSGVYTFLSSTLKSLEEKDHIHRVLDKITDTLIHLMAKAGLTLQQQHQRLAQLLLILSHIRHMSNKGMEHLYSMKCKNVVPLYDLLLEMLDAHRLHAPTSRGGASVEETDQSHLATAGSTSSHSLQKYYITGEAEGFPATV

[2] = biological target: Estrogen receptor beta (Homo sapiens) (UniProt Q92731); assay: Ratio of estradiol IC50 to compound IC50 for ERbeta receptor by relative binding affinity assay
Sequence of Estrogen receptor beta (Homo sapiens) (Q92731 whole entry): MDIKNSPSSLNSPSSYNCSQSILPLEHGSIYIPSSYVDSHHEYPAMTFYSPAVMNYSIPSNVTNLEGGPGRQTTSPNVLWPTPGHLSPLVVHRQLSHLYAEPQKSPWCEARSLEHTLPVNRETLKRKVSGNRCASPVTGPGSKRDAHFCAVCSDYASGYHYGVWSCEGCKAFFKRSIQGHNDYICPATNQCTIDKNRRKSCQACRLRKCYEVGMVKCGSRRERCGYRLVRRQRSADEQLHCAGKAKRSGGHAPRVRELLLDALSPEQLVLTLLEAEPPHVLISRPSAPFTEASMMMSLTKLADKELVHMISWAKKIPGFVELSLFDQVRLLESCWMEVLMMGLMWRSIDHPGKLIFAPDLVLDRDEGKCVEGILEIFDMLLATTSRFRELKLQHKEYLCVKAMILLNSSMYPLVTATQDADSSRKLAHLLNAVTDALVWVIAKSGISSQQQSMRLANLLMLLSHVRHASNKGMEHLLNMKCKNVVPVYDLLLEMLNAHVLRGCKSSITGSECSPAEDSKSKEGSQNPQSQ

[3] = Relative binding affinity to estrogen receptor relative to estradiol

Compound	Ratio IC50 [1]	Ratio IC50 [2]	RBA [3] [%]
Cc1cccc(C)c1B(c1c(C)cccc1C)N(CC(F)(F)F)c1ccc(O)cc1	10	5.8	–
CCN(B(c1c(C)cc(C)cc1C)c1c(C)cc(C)cc1C)c1ccc(O)cc1	1.3	1.1	–
Cc1cccc(C)c1B(c1c(C)cccc1C)N(C)c1ccc(O)cc1	23	16	–
Oc1ccc(-c2cc(-c3ccc(O)cc3)[nH]n2)cc1	–	–	0.009
CCc1c(-c2ccc(O)cc2)nn(-c2ccc(O)cc2)c1-c1ccc(O)cc1	–	–	19
CCc1c(-c2ccc(O)cc2)nc(-c2ccccc2)n1-c1ccc(O)cc1	–	–	0.37
Oc1ccc(-c2cc(-c3ccc(O)cc3)n(-c3ccccc3)n2)cc1	–	–	0.03
CCn1c(-c2ccc(O)cc2)nc(-c2ccccc2)c1-c1ccc(O)cc1	–	–	0.25
Cc1cc(C)c(B(Nc2ccc(O)cc2)c2c(C)cc(C)cc2C)c(C)c1	0.013	0.18	–
CCCCCN(B(c1c(C)cc(C)cc1C)c1c(C)cc(C)cc1C)c1ccc(O)cc1	0.16	0.12	–
Cc1cc(C)c(B(c2c(C)cc(C)cc2C)N(C)c2ccc(O)cc2)c(C)c1	1.3	3.1	–
CCn1c(-c2ccc(O)cc2)nc(-c2ccc(O)cc2)c1-c1ccc(O)cc1	–	–	0.38
Cc1cc(C)c(B(c2c(C)cc(C)cc2C)N(CC(F)(F)F)c2ccc(O)cc2)c(C)c1	2.2	1.3	–
CCc1c(-c2ccc(O)cc2)n[nH]c1-c1ccc(O)cc1	–	–	0.02
CCc1c(-c2ccc(O)cc2)nn(-c2ccccc2)c1-c1ccc(O)cc1	–	–	14
